Assays:
MDA-MB-231 cells [1] = experiment: Cell cycle, flow cytometry with propidium iodide; format: cell-based, human; conditions: MitoQ 100 nM, 48 h
Protocol: Cells were seeded in 6-well plates at a density of 500,000 cells/well and allowed to adhere overnight. Cells were then starved in 0.1% FBS medium for 24 h and treated for 48 h±MitoQ. Afterwards, they were detached with trypsin-EDTA (0.05%) (Gibco®, cat #25300054) and centrifuged at 1,200 rpm for 5 min. Culture medium was discarded, and the pellets washed. Cells were fixed by adding 700 μL of ice-cold ethanol 100% in 300 μL of cell suspension in PBS. Cells were then washed twice with 1 mL of Tris buffer with 0.2% (v/v) Triton X-100, and finally resuspended in 300 μL of PBS with RNase (0.2 mg/mL) and propidium iodide (5 μg/mL). At least 10^4 events were acquired using a FACSCalibur™ flow cytometer (Becton Dickinson®), and the FlowJo cell cycle analysis tool was used to analyze data according to DNA content.

MDA-MB-231 cells [2] = experiment: Direct cell counting, MitoQ alone; format: cell-based, human
Protocol: (§1) To probe the effects of MitoQ alone on cell numbers, MDA-MB-231, SkBr3, MDA-MB-436 or MCF10A (2,500-10,000 cells/well) cells were plated in 96-well plates and treated with increasing concentrations of MitoQ. At each time point, the number of cells per well was measured using a SpectraMax i3 spectrophotometer equipped with a MiniMax™ imaging cytometer.

MDA-MB-436 cells [3] = experiment: Direct cell counting, MitoQ alone; format: cell-based, human; conditions: increasing doses of MitoQ (0 to 500 nM)
Protocol: as §1

SkBr3 cells [4] = experiment: Direct cell counting, MitoQ alone; format: cell-based, human
Protocol: as §1

MDA-MB-231 cells [5] = experiment: RT-qPCR of EMT markers; format: cell-based, human; conditions: MitoQ 500 nM, 48 h
Protocol: (§2) Total mRNA from MDA-MB-231, SkBr3 and MDA-MB-436 cells treated ±MitoQ for 48 h was extracted using the NucleoSpin RNA Kit (Macherey-Nagel®). Total mRNA from primary tumors was extracted with Tri reagent (Molecular Research Center®, Cat #TR118). mRNAs were quantified by the Qubit BR dsRNA assay kit (Thermo Fisher Scientific®), and mRNA integrity was evaluated on an Agilent® 2100 Bioanalyzer with the RNA 6000 nano kit (Agilent®). It was reverse transcribed in complementary DNA using the High-Capacity cDNA Reverse Transcription Kit (Applied Biosystems®, cat #4368814) according to manufacturer's protocol. Complementary DNA (500 ng) was amplified by real time quantitative PCR (RT-qPCR) using the low ROX SYBR Master Mix dTTP Blue (Eurogentec®) and primers listed in Table 5 and Table 6 on a ViiA 7 Real-Time PCR System (Thermo Fisher Scientific®). Gene expression was normalized to β-actin gene expression.

MDA-MB-436 cells [6] = experiment: RT-qPCR of EMT markers; format: cell-based, human; conditions: MitoQ 100 nM, 48 h
Protocol: as §2

SkBr3 cells [7] = experiment: RT-qPCR of EMT markers; format: cell-based, human; conditions: MitoQ 500 nM, 48 h
Protocol: as §2

[8] = test system: MDA-MB-231 and SkBr3 cells in culture; experiment: RT-qPCR validation of mRNA biomarkers in vitro; format: cell-based, human; conditions: MitoQ 500 nM, 48 h
Protocol: as §2
While EMT and sternness markers are usual suspects when testing antimetastatic strategies, it was decided to go deeper in the understanding of the molecular effects of MitoQ, and performed unbiased RNA sequencing (RNAseq) using cells treated for 48 h±MitoQ (500 nM). […] On independent samples upon the same conditions (including |log 2 Fold Change|>1 and P<0.01), RT-qPCR on the two cell lines validated all genes as potential biomarkers of human breast cancer cell response to MitoQ, to the exception of EID1, PEG10, FTH1 and NUPR1 (FIG. 12A-M and Table 7).

[9] = test system: murine 4T1 breast cancer cells; experiment: Cell viability, crystal violet; format: cell-based, mouse; conditions: increasing doses of cisplatin ±100 nM MitoQ, 48 h
Protocol: […] The solution was carefully removed and plates were washed twice with water. After drying protected by light, cells were resuspended in 50 μl DMSO and the plates were read with a Victor X4 plate reader (Perkin®).

MCF7 cells = experiment: Migration towards 0.5% serum, chemotaxis chamber; format: cell-based, human; conditions: 0.1 μg/mL DXR + 100 nM MitoQ
Protocol: (§3) Previous to migration and invasion assays, cells were pretreated with the indicated amounts of drugs for 16 h, and left to recover for 6 h in full culture medium. Migration assays were performed in a NeuroProbe® standard 48-well chemotaxis chamber according to manufacturer's instructions. Briefly, the bottom chamber was filled with DMEM containing 0.5% serum as a chemo-attractant. Fifty thousand cells were seeded in the upper chamber in the same medium but without serum ±MitoQ where indicated, and allowed to migrate overnight through an 8-μm pore-size polycarbonate membrane. A similar stimulation protocol was used for invasion assays, with the difference of using Matrigel-coated transwells (Corning®). With MCF7 cells, membranes were previously incubated for 30 min with a solution of Vitronectin 10 μg/ml (Sigma-Aldrich®, #SRP3186). Migrated/invaded cells were fixed and stained with 100 μl of a 0.23% crystal violet solution (Sigma-Aldrich®, #C0775) for 10 min before counting on a SpectraMax™ i3 spectrophotometer equipped with a MiniMax imaging cytometer, using the SoftMax Pro software. Data were normalized to vehicle-treated cells (control).

MDA-MB-231 cells [10] = experiment: Migration towards 0.5% serum, chemotaxis chamber; format: cell-based, human; conditions: indicated doses of cisplatin + 100 nM MitoQ
Protocol: as §3

Compound: COC1=C(OC)C(=O)C(CCCCCCCCCC[P+](c2ccccc2)(c2ccccc2)c2ccccc2)=C(C)C1=O [MitoQ]
- cell cycle (MDA-MB-231 cells [1]): not altered
- MitoQ dose starting from which cell number is reduced (MDA-MB-231 cells [2]; doses 0 to 500 nM): ≥ 500 nM
- cell numbers, dose dependence (MDA-MB-231 cells [2]; increasing doses of MitoQ): Dose-dependent decreases
- cell numbers (MDA-MB-436 cells [3]): dose-dependently reduced
- MitoQ dose from which cell numbers started to decrease (SkBr3 cells [4]; doses 0 to 500 nM): ≥ 250 nM
- cell numbers, dose dependence (SkBr3 cells [4]; increasing doses of MitoQ): Dose-dependent decreases
- SLUG/SNAI2 transcription (MDA-MB-231 cells [5]): not significantly altered
- mRNA expression of EMT markers vimentin (VIM), SNAIL (SNAI1), ZEB1 and TWIST1 (MDA-MB-231 cells [5]): decreased
- mRNA expression of EMT markers VIM (vimentin), SNAI1, SNAI2 and TWIST1 (MDA-MB-436 cells [6]): downregulated
- mRNA expression of all analyzed EMT inducers (SkBr3 cells [7]): repressed
- ASNS transcript upregulated in response to MitoQ: Validated in vitro [8]: + (Repressed or induced by ≥2-fold with P < 0.01 in both MDA-MB-231 and SkBr3 cells in culture.)
- G6PD transcript upregulated in response to MitoQ: Validated in vitro [8]: + (Repressed or induced by ≥2-fold with P < 0.01 in both MDA-MB-231 and SkBr3 cells in culture.)
- PCK2 transcript upregulated in response to MitoQ: Validated in vitro [8]: + (Repressed or induced by ≥2-fold with P < 0.01 in both MDA-MB-231 and SkBr3 cells in culture.)
- PHGDH-1 transcript upregulated in response to MitoQ: Validated in vitro [8]: + (Repressed or induced by ≥2-fold with P < 0.01 in both MDA-MB-231 and SkBr3 cells in culture.)
- PSAT1 transcript upregulated in response to MitoQ: Validated in vitro [8]: + (Repressed or induced by ≥2-fold with P < 0.01 in both MDA-MB-231 and SkBr3 cells in culture.)
- SERPINE1 transcript upregulated in response to MitoQ: Validated in vitro [8]: + (Repressed or induced by ≥2-fold with P < 0.01 in both MDA-MB-231 and SkBr3 cells in culture.)
- SLC6A9 transcript upregulated in response to MitoQ: Validated in vitro [8]: + (Repressed or induced by ≥2-fold with P < 0.01 in both MDA-MB-231 and SkBr3 cells in culture.)
- SLC7A11 transcript upregulated in response to MitoQ: Validated in vitro [8]: + (Repressed or induced by ≥2-fold with P < 0.01 in both MDA-MB-231 and SkBr3 cells in culture.)
- TXNRD1 transcript upregulated in response to MitoQ: Validated in vitro [8]: + (Repressed or induced by ≥2-fold with P < 0.01 in both MDA-MB-231 and SkBr3 cells in culture.)
- cancer cell killing activity, cisplatin combined with MitoQ [9]: did not interfere
- DXR-stimulated cell migration (MCF7 cells): inhibited
- breast cancer cell migration in the presence of cisplatin (MDA-MB-231 cells [10]): repressed
